Activity calls are given as the source filed them. The rule behind the calls is not given here.
Tests used:
U-251 = assay: Antiproliferative activity against human U-251MG cells overexpressing DHX33 assessed as inhibition of cell growth measured after 48 hrs by CCK-8 assay; type: functional, cell-based; conditions: U-251, 48 h
[1] = Microsomal stability in human liver microsome assessed as intrinsic clearance; type: ADME; conditions: liver microsomes, read-out: CLH
A549 [2] = assay: Downregulation of MCM4 mRNA expression in human A549 cells by SYBR dye based RT-PCR analysis; type: functional, cell-based
A549 [3] = assay: Downregulation of E2F1 mRNA expression in human A549 cells by SYBR dye based RT-PCR analysis; type: functional, cell-based
A549 [4] = assay: Downregulation of CyclinE2 mRNA expression in human A549 cells by SYBR dye based RT-PCR analysis; type: functional, cell-based
[5] = target: T1, Probable ATP-dependent RNA helicase DDX59 (Homo sapiens, UniProt Q5T1V6); assay: Inhibition of C-terminal 6xHis-tagged human recombinant DDX59 transformed in Escherichia coli BL21(DE3)pLysS cells
T1 sequence (Q5T1V6 whole entry): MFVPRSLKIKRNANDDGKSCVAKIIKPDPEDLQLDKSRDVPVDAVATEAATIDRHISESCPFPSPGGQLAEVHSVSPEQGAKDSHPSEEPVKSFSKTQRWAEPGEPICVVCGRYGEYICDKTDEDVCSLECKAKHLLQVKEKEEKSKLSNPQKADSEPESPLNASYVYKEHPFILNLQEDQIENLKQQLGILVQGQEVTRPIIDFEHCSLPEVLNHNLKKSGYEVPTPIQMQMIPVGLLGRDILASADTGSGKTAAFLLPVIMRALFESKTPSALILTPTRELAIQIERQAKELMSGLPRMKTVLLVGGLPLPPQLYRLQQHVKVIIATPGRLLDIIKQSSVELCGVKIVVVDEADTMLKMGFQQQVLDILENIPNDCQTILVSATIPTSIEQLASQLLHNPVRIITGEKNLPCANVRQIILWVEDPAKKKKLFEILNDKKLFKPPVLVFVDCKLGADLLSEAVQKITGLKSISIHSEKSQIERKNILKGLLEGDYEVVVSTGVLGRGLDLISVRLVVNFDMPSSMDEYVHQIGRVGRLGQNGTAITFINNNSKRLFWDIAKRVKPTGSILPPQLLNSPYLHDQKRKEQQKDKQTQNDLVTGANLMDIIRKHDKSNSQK

A549 [6] = assay: Downregulation of MCM3 mRNA expression in human A549 cells by SYBR dye based RT-PCR analysis; type: functional, cell-based
[7] = target: T2, Probable ATP-dependent RNA helicase DDX6 (Homo sapiens, UniProt P26196); assay: Inhibition of N-terminal thioredoxin-tagged human recombinant DDX6 transformed in Escherichia coli BL21(DE3)pLysS cells
T2 sequence (P26196 whole entry): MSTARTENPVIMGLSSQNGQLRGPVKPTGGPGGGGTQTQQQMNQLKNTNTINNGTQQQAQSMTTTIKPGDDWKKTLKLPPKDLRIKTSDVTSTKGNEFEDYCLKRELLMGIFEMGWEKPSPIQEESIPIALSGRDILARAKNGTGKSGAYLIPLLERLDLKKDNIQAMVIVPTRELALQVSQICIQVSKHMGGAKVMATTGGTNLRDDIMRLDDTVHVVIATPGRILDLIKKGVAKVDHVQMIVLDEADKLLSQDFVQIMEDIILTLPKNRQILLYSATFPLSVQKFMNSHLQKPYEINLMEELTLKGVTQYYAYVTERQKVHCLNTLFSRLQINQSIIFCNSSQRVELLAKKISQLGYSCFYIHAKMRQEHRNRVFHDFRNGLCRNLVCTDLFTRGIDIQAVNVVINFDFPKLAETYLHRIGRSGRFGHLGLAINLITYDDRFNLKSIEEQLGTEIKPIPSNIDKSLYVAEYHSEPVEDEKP

A549 [8] = assay: Downregulation of CyclinB2 mRNA expression in human A549 cells by SYBR dye based RT-PCR analysis; type: functional, cell-based
A549 [9] = assay: Downregulation of MCM2 mRNA expression in human A549 cells by SYBR dye based RT-PCR analysis; type: functional, cell-based
[10] = target: T3, Putative pre-mRNA-splicing factor ATP-dependent RNA helicase DHX32 (Homo sapiens, UniProt Q7L7V1); assay: Inhibition of N-terminal thioredoxin-tagged human recombinant DHX32 transformed in Escherichia coli BL21(DE3)pLysS cells
T3 sequence (Q7L7V1 whole entry): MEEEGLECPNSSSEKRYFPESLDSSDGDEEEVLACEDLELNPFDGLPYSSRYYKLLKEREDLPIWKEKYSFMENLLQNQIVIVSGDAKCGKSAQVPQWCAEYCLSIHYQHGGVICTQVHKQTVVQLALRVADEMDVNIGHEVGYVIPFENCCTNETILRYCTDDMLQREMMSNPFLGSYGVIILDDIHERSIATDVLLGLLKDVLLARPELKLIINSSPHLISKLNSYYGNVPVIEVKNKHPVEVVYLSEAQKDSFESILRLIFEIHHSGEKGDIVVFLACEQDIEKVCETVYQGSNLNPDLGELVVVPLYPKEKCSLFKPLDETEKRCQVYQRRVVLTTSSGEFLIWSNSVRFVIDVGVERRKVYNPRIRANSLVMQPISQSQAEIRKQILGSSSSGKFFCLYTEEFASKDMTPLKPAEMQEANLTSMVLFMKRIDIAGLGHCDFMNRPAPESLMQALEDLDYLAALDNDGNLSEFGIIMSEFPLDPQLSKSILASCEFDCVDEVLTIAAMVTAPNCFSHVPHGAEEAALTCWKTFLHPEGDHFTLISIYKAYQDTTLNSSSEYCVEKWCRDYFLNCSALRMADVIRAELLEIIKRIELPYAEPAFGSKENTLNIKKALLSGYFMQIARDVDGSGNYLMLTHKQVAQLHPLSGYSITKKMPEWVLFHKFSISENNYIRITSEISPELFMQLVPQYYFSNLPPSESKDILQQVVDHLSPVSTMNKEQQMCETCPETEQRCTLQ

[11] = target: T4, ATP-dependent RNA helicase DHX33 (Mus musculus, UniProt Q80VY9); assay: Inhibition of N-terminal/C-terminal 6x His-tagged wild type recombinant mouse DHX33 transformed in Escherichia coli BL21(DE3)pLysS cells
T4 sequence (Q80VY9 whole entry): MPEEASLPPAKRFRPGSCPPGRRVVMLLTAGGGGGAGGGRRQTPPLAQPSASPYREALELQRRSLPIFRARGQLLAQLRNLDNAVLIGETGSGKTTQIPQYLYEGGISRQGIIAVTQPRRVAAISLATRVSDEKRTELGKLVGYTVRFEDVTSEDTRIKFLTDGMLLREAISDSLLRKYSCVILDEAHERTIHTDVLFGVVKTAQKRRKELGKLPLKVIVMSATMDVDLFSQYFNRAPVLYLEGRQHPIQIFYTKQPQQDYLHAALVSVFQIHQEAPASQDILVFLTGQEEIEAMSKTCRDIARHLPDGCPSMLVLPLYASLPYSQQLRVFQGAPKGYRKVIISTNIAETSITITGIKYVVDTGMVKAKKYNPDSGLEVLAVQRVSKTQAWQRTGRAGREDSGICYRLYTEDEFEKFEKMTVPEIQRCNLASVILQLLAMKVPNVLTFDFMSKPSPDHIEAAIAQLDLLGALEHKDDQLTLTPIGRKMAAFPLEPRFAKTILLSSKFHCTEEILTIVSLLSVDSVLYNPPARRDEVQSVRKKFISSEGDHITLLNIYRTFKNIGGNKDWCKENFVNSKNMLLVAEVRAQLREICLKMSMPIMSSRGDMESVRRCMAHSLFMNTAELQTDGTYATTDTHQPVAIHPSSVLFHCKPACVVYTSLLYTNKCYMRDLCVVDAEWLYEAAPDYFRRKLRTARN

A549 [12] = assay: Downregulation of MCM7 mRNA expression in human A549 cells by SYBR dye based RT-PCR analysis; type: functional, cell-based
A549 [13] = assay: Downregulation of FEN1 mRNA expression in human A549 cells by SYBR dye based RT-PCR analysis; type: functional, cell-based

Row | SMILES | IC50 (U-251) | other results
1 | COc1cccc2nc(/C(C#N)=C/c3cc(C)n(-c4oc(C)c(C)c4C#N)c3C)[nH]c12 | > 10000 nM | –
2 | COc1cc2nc(/C(C#N)=C/c3cc(C)n(-c4sc(C)cc4C(N)=O)c3C)[nH]c2cn1 | 180 nM | CLint scaled [1]: 140 mL/min/kg
3 | COc1ccc2nc(/C(C#N)=C/c3cc(C)n(-c4oc(C)c(C)c4C#N)c3C)[nH]c2n1 | 4080 nM | –
4 | Cc1ccc2nc(/C(C#N)=C/c3cc(C)n(-c4oc(C)c(C)c4C#N)c3C)[nH]c2c1 | 2440 nM | –
5 | COc1cncc2nc(/C(C#N)=C/c3cc(C)n(-c4sc(C)c(C)c4C#N)c3C)[nH]c12 | 4680 nM | –
6 | COc1ccc2nc(/C(C#N)=C/c3cc(C)n(-c4oc(C)c(C)c4C#N)c3C)[nH]c2c1 | 540 nM | –
7 | COc1cc2nc(/C(C#N)=C/c3cc(C)n(-c4oc(C)c(C)c4C#N)c3C)[nH]c2cn1 | 70 nM | –
8 | COc1cc2nc(/C(C#N)=C/c3cc(C)n(-c4sc(C)c(C)c4C#N)c3C)[nH]c2cn1 | 30 nM | –
9 | Cc1oc(-n2c(C)cc(/C=C(\C#N)c3nc4ccccc4[nH]3)c2C)c(C#N)c1C | 7820 nM | Activity (A549 [2]): Active; Activity (A549 [3]): Active; Activity (A549 [4]): Active; IC50 [5]: > 5000 nM; Activity (A549 [6]): Active; IC50 [7]: > 4000 nM; Activity (A549 [8]): Active; Activity (A549 [9]): Active; IC50 [10]: > 5000 nM; IC50 [11]: 520 nM; Activity (A549 [12]): Active; Activity (A549 [13]): Active
10 | COc1ccc2nc(/C(C#N)=C/c3cc(C)n(-c4sc(C)cc4C#N)c3C)[nH]c2c1 | 110 nM | CLint scaled [1]: 290 mL/min/kg
11 | COc1cc2nc(/C(C#N)=C/c3cc(C)n(-c4oc(C)c(C)c4C#N)c3C)[nH]c2cc1OC | 1540 nM | –
12 | COc1nccc2nc(/C(C#N)=C/c3cc(C)n(-c4sc(C)c(C)c4C#N)c3C)[nH]c12 | 3970 nM | –
13 | Cc1oc(-n2c(C)cc(/C=C(\C#N)c3nc4ccc(F)cc4[nH]3)c2C)c(C#N)c1C | 3200 nM | –
14 | COc1ccc2nc(NC(=O)c3cc(C)n(-c4oc(C)nc4C#N)c3C)[nH]c2c1 | 70 nM | –
15 | COc1cc2nc(/C(C#N)=C/c3cc(C)n(-c4sc(C)cc4C#N)c3C)[nH]c2cn1 | 20 nM | CLint scaled [1]: 187 mL/min/kg

From ChEMBL document CHEMBL5390231, “Development of small molecule inhibitors targeting RNA helicase DHX33 as anti-cancer agents” (Bioorg Med Chem Lett, 2023)
